{
  "source": "patent US20050038125A1",
  "about": "“Method for the treatment of arthritis and pain” (priority 2003, published 2005)",
  "key": {"[1]": {"test_system": "PGE2 production in mouse whole blood", "assay": "LPS stimulated PGE2 production by mouse whole blood", "assay_type": "cell-based", "experimental": "Murine blood (C57/b16 male) was collected in heparinized collection tubes. The blood was diluted 0.5 times with cell culture medium without serum. 150 μl diluted blood was transferred into a 96-well microtiterplate. Silbinol™ was dissolved in DMSO and subsequently further diluted before adding to the cells in a concentration range of 0-25-50 μg/ml. Total amount of DMSO in the well was 0.1% DMSO. After 1 hour of preincubation of the mixture of blood cells and Silbinol™ or blood cells and 100 μM Ibuprofen™ at 37° C. in a humidified atmosphere containing 5% CO2, 1 μg/ml LPS was added and incubated for another 20 hours. Plates were centrifuged (5 minutes, 1200 rpm, SorvallRT7™) and supernatants are harvested and stored at −80° C. for further analysis.\nPGE2 in the thawed supernatants was determined using the commercial enzyme immunoassay of Biotrak™ (Biotrak Amersham, Buckinghamshire, UK) according to the manufacturer's protocol 2."}, "[2]": {"test_system": "PGE2 production by hPBMCs", "assay": "PGE2 production by LPS stimulated hPBMCs (enzyme immunoassay)", "assay_type": "cell-based, human", "settings": "for PGE2 production / effect on PGE2 production by hPBMCs (in words): after LPS stimulation; for IC50: Homo sapiens, read-out: estimated IC50 (PGE2 production by hPBMCs after LPS stimulation)", "experimental": "Peripheral Blood Mononuclear Cells (PBMCs) isolated from buffy coats of human blood from 3 healthy donors were stored in liquid nitrogen using standard procedures. For each experiment, PBMCs were thawed, transferred into a 50 ml centrifuge tube (BD Falcon, Erembodegem Aalst, Belgium) and cell culture medium (RPNI-1640 containing 25 mM HEPES and 2 mM L-glutamine (Life-Technologies, Merelbeke, Belgium) and further enriched with 10% heat inactivated fetal calf serum (^hiFCS), 120 U/ml penicillin/streptomycin and 1.2 mM sodium pyruvate) was added in a drop-wise fashion. Subsequently cells were centrifuged for 5 minutes at 1200 rpm (Sorvall RT7™). Cells were washed with cell culture medium (two times) and counted using a coulter counter (Beckman Coulter, Fullerton, Calif., USA). Parallel, a microscopic viability check using trypan blue is performed. PBMCs were pipetted into a 96-well flat bottom microtiterplate (BD Falcon, Brembodegem Aalst, Belgium), 1.5×10^5 cells per well. Pterostilbene (Chromadex, Santa Anna, Calif., USA), Silbinol™ (Pterocarpus marsupium plant extract containing at least 5 wt. % pterostilbene based on dried weight; Sabinsa Corporation, Piscataway, USA) and resveratrol (Sigma, St. Louis, USA) were dissolved in dimethylsulfoxide (DMSO) and subsequently further diluted in cell culture medium and added to the cells in a concentration range (see below). DMSO concentration in the wells was 0.1%. Subsequently the cells were incubated for 1 hour at 37° C. in a humidified atmosphere containing 5% CO2. After 1 hour, lipopolysaccharide (LPS, E. Coli […], […]) was added and the cells were incubated for 20 hours at 37° C. in a humidified atmosphere containing 5% CO2. The supernatants were harvested 20 hours after incubation and stored at −80° C. until further analysis. Metabolic activity of the PBMCs with and without the presence of test compound was determined using the succinate dehydrogenase activity.\nConcentrations of 3.12, 6.25, 12.5, 25 and 50 μg/ml of either Pterostilbene or Silbinol™ were tested to find the dose range of inhibitory activity (Table 1 and 2). Following the determination of the dose range with PGE2 production inhibitory activity, concentrations of 0, 2, 4, 8, 16 and 32 μg/ml Silbinol™ (Table 3) and 0, 0.037, 0.11, 0.33, 1 and 3 μM pterostilbene (Table 4) were tested.\nFor comparative purposes, the effects 0, 0.33, 1, 3, 9 and 27 μM resveratrol on PGE2 production by hPBMCs was determined (Table 5).\nPGE2 in the thawed supernatants was measured using a commercial enzyme immunoassay (Biotrak Amersham, Buckinghamshire, UK) according to the manufacturer's protocol 2."}, "hPBMCs": {"test_system": "hPBMCs", "assay": "Metabolic activity of PBMCs (succinate dehydrogenase activity)", "assay_type": "cell-based, human", "settings": "lower dose range (Table 4), compared with PGE2 inhibition", "experimental": "Peripheral Blood Mononuclear Cells (PBMCs) isolated from buffy coats of human blood from 3 healthy donors were stored in liquid nitrogen using standard procedures. For each experiment, PBMCs were thawed, transferred into a 50 ml centrifuge tube (BD Falcon, Erembodegem Aalst, Belgium) and cell culture medium (RPNI-1640 containing 25 mM HEPES and 2 mM L-glutamine (Life-Technologies, Merelbeke, Belgium) and further enriched with 10% heat inactivated fetal calf serum (^hiFCS), 120 U/ml penicillin/streptomycin and 1.2 mM sodium pyruvate) was added in a drop-wise fashion. Subsequently cells were centrifuged for 5 minutes at 1200 rpm (Sorvall RT7™). Cells were washed with cell culture medium (two times) and counted using a coulter counter (Beckman Coulter, Fullerton, Calif., USA). Parallel, a microscopic viability check using trypan blue is performed. PBMCs were pipetted into a 96-well flat bottom microtiterplate (BD Falcon, Brembodegem Aalst, Belgium), 1.5×10^5 cells per well. […] Metabolic activity of the PBMCs with and without the presence of test compound was determined using the succinate dehydrogenase activity."}},
  "data": [
    {"compound": "CC(C)Cc1ccc(C(C)C(=O)O)cc1", "note": "(stereo not shown) [Ibuprofen]", "values": [
      {"measurement": "PGE2 production", "setting": "[1]; 100 μM, LPS stimulated mouse whole blood", "value": 1709, "unit": "pg/mL"},
      {"measurement": "effect on PGE2 production in mouse whole blood (in words)", "setting": "[1]; LPS stimulated", "value": "inhibit PGE2 production"}
    ]},
    {"compound": "COc1cc(C=Cc2ccc(O)cc2)cc(OC)c1", "note": "[Pterostilbene, 4′-hydroxy-3,5-dimethoxystilbene]", "values": [
      {"measurement": "PGE2 production", "setting": "[2]; 0.037 μM, Mean of donors A-C", "value": 5434, "unit": "pg/mL"},
      {"measurement": "PGE2 production", "setting": "[2]; 0.037 μM, donor A", "value": 5957, "unit": "pg/mL"},
      {"measurement": "PGE2 production", "setting": "[2]; 0.037 μM, donor B", "value": 7788, "unit": "pg/mL"},
      {"measurement": "PGE2 production", "setting": "[2]; 0.037 μM, donor C", "value": 2574, "unit": "pg/mL"},
      {"measurement": "PGE2 production", "setting": "[2]; 0.11 μM, Mean of donors A-C", "value": 4494, "unit": "pg/mL"},
      {"measurement": "PGE2 production", "setting": "[2]; 0.11 μM, donor A", "value": 5305, "unit": "pg/mL"},
      {"measurement": "PGE2 production", "setting": "[2]; 0.11 μM, donor B", "value": 6930, "unit": "pg/mL"},
      {"measurement": "PGE2 production", "setting": "[2]; 0.11 μM, donor C", "value": 1248, "unit": "pg/mL"},
      {"measurement": "PGE2 production", "setting": "[2]; 0.33 μM, Mean of donors A-C", "value": 2589, "unit": "pg/mL"},
      {"measurement": "PGE2 production", "setting": "[2]; 0.33 μM, donor A", "value": 2786, "unit": "pg/mL"},
      {"measurement": "PGE2 production", "setting": "[2]; 0.33 μM, donor B", "value": 4782, "unit": "pg/mL"},
      {"measurement": "PGE2 production", "setting": "[2]; 0.33 μM, donor C", "value": 199, "unit": "pg/mL"},
      {"measurement": "PGE2 production", "setting": "[2]; 1 μM, Mean of donors A-C", "value": 1879, "unit": "pg/mL"},
      {"measurement": "PGE2 production", "setting": "[2]; 1 μM, donor A", "value": 2067, "unit": "pg/mL"},
      {"measurement": "PGE2 production", "setting": "[2]; 1 μM, donor B", "value": 3570, "unit": "pg/mL"},
      {"measurement": "PGE2 production", "setting": "[2]; 3 μM, Mean of donors A-C", "value": 691, "unit": "pg/mL"},
      {"measurement": "PGE2 production", "setting": "[2]; 3 μM, donor A", "value": 280, "unit": "pg/mL"},
      {"measurement": "PGE2 production", "setting": "[2]; 3 μM, donor B", "value": 1794, "unit": "pg/mL"},
      {"measurement": "PGE2 production", "setting": "[2]; 3.12 μg/ml, Mean of donors A-C", "value": 39, "unit": "pg/mL"},
      {"measurement": "PGE2 production", "setting": "[2]; 3.12 μg/ml, donor B", "value": 117, "unit": "pg/mL"},
      {"measurement": "PGE2 production", "setting": "[2]; 6.25 μg/ml, Mean of donors A-C", "value": 9, "unit": "pg/mL"},
      {"measurement": "PGE2 production", "setting": "[2]; 6.25 μg/ml, donor A", "value": 28, "unit": "pg/mL"},
      {"measurement": "PGE2 production", "setting": "[2]; 12.5 μg/ml, Mean of donors A-C", "value": 2, "unit": "pg/mL"},
      {"measurement": "PGE2 production", "setting": "[2]; 12.5 μg/ml, donor B", "value": 5, "unit": "pg/mL"},
      {"measurement": "PGE2 production", "setting": "[2]; 25 μg/ml, Mean of donors A-C", "value": 44, "unit": "pg/mL"},
      {"measurement": "PGE2 production", "setting": "[2]; 25 μg/ml, donor A", "value": 63, "unit": "pg/mL"},
      {"measurement": "PGE2 production", "setting": "[2]; 25 μg/ml, donor B", "value": 69, "unit": "pg/mL"},
      {"measurement": "PGE2 production", "setting": "[2]; 50 μg/ml, Mean of donors A-C", "value": 269, "unit": "pg/mL"},
      {"measurement": "PGE2 production", "setting": "[2]; 50 μg/ml, donor A", "value": 584, "unit": "pg/mL"},
      {"measurement": "PGE2 production", "setting": "[2]; 50 μg/ml, donor B", "value": 222, "unit": "pg/mL"},
      {"measurement": "IC50", "setting": "[2]", "value": 830, "unit": "nM"},
      {"measurement": "effect on PGE2 production by hPBMCs (in words)", "setting": "[2]", "value": "inhibit PGE2 production"},
      {"measurement": "metabolic activity of hPBMCs", "setting": "hPBMCs", "value": "decrease, however to a much lesser extent"}
    ]},
    {"compound": "Oc1ccc(C=Cc2cc(O)cc(O)c2)cc1", "note": "[Resveratrol, resveratrol, reference compound]", "values": [
      {"measurement": "IC50", "setting": "[2]", "value": 4700, "unit": "nM"},
      {"measurement": "PGE2 production", "setting": "[2]; Table 5, 0.33 μM, Mean of donors A-C", "value": 6717, "unit": "pg/mL"},
      {"measurement": "PGE2 production", "setting": "[2]; Table 5, 0.33 μM, donor A", "value": 8380, "unit": "pg/mL"},
      {"measurement": "PGE2 production", "setting": "[2]; Table 5, 0.33 μM, donor B", "value": 8060, "unit": "pg/mL"},
      {"measurement": "PGE2 production", "setting": "[2]; Table 5, 0.33 μM, donor C", "value": 3710, "unit": "pg/mL"},
      {"measurement": "PGE2 production", "setting": "[2]; Table 5, 1 μM, Mean of donors A-C", "value": 5601, "unit": "pg/mL"},
      {"measurement": "PGE2 production", "setting": "[2]; Table 5, 1 μM, donor A", "value": 6835, "unit": "pg/mL"},
      {"measurement": "PGE2 production", "setting": "[2]; Table 5, 1 μM, donor B", "value": 7369, "unit": "pg/mL"},
      {"measurement": "PGE2 production", "setting": "[2]; Table 5, 1 μM, donor C", "value": 2597, "unit": "pg/mL"},
      {"measurement": "PGE2 production", "setting": "[2]; Table 5, 3 μM, Mean of donors A-C", "value": 2916, "unit": "pg/mL"},
      {"measurement": "PGE2 production", "setting": "[2]; Table 5, 3 μM, donor A", "value": 3120, "unit": "pg/mL"},
      {"measurement": "PGE2 production", "setting": "[2]; Table 5, 3 μM, donor B", "value": 5449, "unit": "pg/mL"},
      {"measurement": "PGE2 production", "setting": "[2]; Table 5, 3 μM, donor C", "value": 178, "unit": "pg/mL"},
      {"measurement": "PGE2 production", "setting": "[2]; Table 5, 9 μM, Mean of donors A-C", "value": 1383, "unit": "pg/mL"},
      {"measurement": "PGE2 production", "setting": "[2]; Table 5, 9 μM, donor A", "value": 1213, "unit": "pg/mL"},
      {"measurement": "PGE2 production", "setting": "[2]; Table 5, 9 μM, donor B", "value": 2936, "unit": "pg/mL"},
      {"measurement": "PGE2 production", "setting": "[2]; Table 5, 27 μM, Mean of donors A-C", "value": 1090, "unit": "pg/mL"},
      {"measurement": "PGE2 production", "setting": "[2]; Table 5, 27 μM, donor A", "value": 913, "unit": "pg/mL"},
      {"measurement": "PGE2 production", "setting": "[2]; Table 5, 27 μM, donor B", "value": 2355, "unit": "pg/mL"},
      {"measurement": "effect on PGE2 production by hPBMCs (in words)", "setting": "[2]", "value": "inhibit PGE2 production"}
    ]}
  ]
}
